Tested on: HCT116 cells
Conditions: 72 hours; final concentration 0.75 mM sodium butyrate, 2 mM metformin, alone or both in combination; FIG. 1
Method: The human colon cancer cell HCT116 (cell line with K-ras mutation) is cultured in the McCoy's 5A with 10% fetal bovine serum. When the HCT116 cells are cultured to the appropriate number, then the adherent HCT116 cells are suspended, and 2.5×10^5 HCT116 cells per well are seeded in a 6-wells dish. After incubated for 12 hours, sodium butyrate with a final concentration of 0.75 mM, metformin with a final concentration of 2 mM, and the pharmaceutical composition with final concentration of […] are respectively added to the 6-wells dish as above mentioned.
In this embodiment, the final concentration as mentioned means the concentration of respective substances after added in the medium for cell culture, and therefore the medium respectively contains 0.75 mM sodium butyrate, 2 mM metformin, or 0.75 mM sodium butyrate and 2 mM metformin.
After respectably added the above compounds to HCT116 cells, the 6-well dish is incubated in an incubator of 37° C. for 72 hours. After that, the medium and compounds in each well are sequentially removed, and each well is washed by Phosphate Buffered Saline (PBS), then the HCT116 cells are harvested, by treating trypsin-EDTA, for apoptosis analysis.
The apoptosis analysis is based on the Annexin V apoptosis detection kit (BD Pharmingen) for analysis the exposure of phosphatidylserine, and the protocol follows the accompanying manual. In brief, the treated HCT116 cells are washed three times with PBS, and then immediately stained with Annexin V/Propidium Iodide (PI). 1% fetal bovine serum albumin (BSA) is first added to the treated cells. After subsequently added 222.5 μl of binding buffer, 10 μl of PI and 2.5 μl of Annexin V-FITC are directly then added to stain the cells, followed by immediate incubation for 10 minutes at low temperature in the dark. The percentage of the apoptosis is calculated by the flow cytometry and FACSCalibur, the analysis software thereof.

## CN(C)C(=N)N=C(N)N [metformin]
  apoptotic rate of HCT116 cells: about 20%
  improvement of apoptotic rate compared to the control group: about 15%

## CCCC(=O)[O-].[Na+] [sodium butyrate]
  apoptotic rate of HCT116 cells: about 20%
  improvement of apoptotic rate compared to the control group: about 15%

Source: patent US9913816B2, “Method for applying metformin and sodium butyrate in K-ras mutation cancer treatment” (Johnpro Biotech Inc., priority 2013, dated 2018)
